Laboratory results from patent US20190030114A1, “ISOFORM-SPECIFIC CALPAIN INHIBITORS, METHODS OF IDENTIFICATION, AND USES THEREOF” (WESTERN UNIVERSITY OF HEALTH SCIENCES, priority 2014, published 2019).

Tested on: retina (GCL, IPL, RGC)
Test: acute IOP elevation (acute angle closure glaucoma model), systemic (i.p.) C2l
Type: in vivo, mice
Experimental: FIG. 11A: Calpain-2 inhibition reduces, while calpain-1 knockout exacerbates, cell death in the ganglion cell layer induced by acute IOP elevation. H&E staining of retinal sections from the right eye of vehicle- or C2l-injected wild-type and calpain-1 KO mice and the left eye where sham surgery was performed. Vehicle, 10% DMSO in PBS, was injected i.p. 30 min before and 2 h after acute IOP elevation. Pre- and post-injection C2l (0.3 mg/kg) was done i.p. 30 min before and 2 h after acute IOP elevation. For the One post injection group, C2l was injected 2 h after IOP elevation. For the Two post inj group, C2l was injected 2 and 4 h after IOP elevation. H&E staining was performed 3 days after surgery. Scale bar=30 μm.
Six sections cut through the optic disc of each eye were analyzed. Cell numbers in GCL at a distance between […] the optic disc were counted. Cell densities in 6 sections from each eye were averaged. Data represent means±S.E.M. n=7 for vehicle, n=3 for pre and post inj, n=10 for one post inj, n=6 for two post inj, n=4 for KO. ns, no significant difference. ***p<0.001, Two-tailed t-test.
FIG. 11C: Comparison of GCL cell survival rates from the right eye of vehicle- or C2l-injected wild-type and calpain-1 KO mice and the left eye where sham surgery was performed, as described in FIG. 11A. Survival rate for each mouse was calculated as the ratio of cell density in GCL of IOP-elevated eye to cell density in GCL of sham eye. *p<0.05, **p<0.01 versus vehicle, One-way ANOVA followed by Bonferroni test.
FIG. 11D: Brn-3a immunostaining in the retina of vehicle- or C2l-injected WT mice. Acute IOP elevation was performed on the right eye, while sham surgery was performed on the left eye. Vehicle, 10% DMSO, or C2l, C2l (0.3 mg/kg) was injected i.p. 2 h after acute IOP elevation. Brn3a staining was performed 3 days after surgery. Scale bar=60 μm.
FIG. 11E: Quantification of brn3a staining, as described in FIG. 11D. Brn3a-positive cells in GCL were counted. Data represents mean±S.E.M. n=4 for vehicle, n=5 for C2l. Ns, no significant difference, **p<0.01 sham versus IOP elevation, two-tailed t-test.
FIG. 11F: Comparison of survival rates. n=4 for vehicle, n=5 for C2l. **p<0.01 vehicle versus C2l, two-tailed t-test.
FIG. 11G: Representative immunoblots of PHLPP1 and STEP33 in retina tissue of WT, calpain-1 KO and C2l-injected mice collected 3 h after sham surgery or acute IOP elevation. C2l (0.3 mg/kg) was injected systemically 2 h after sham surgery or IOP elevation.
FIG. 11H: Quantitative analysis of the levels of PHLPP1 and STEP33 and ratios of pAkt/Akt for each group. Results represent means±S.E.M. of 4 experiments. *p<0.05, **p<0.01, ***p<0.001, ns no significant difference, One-way ANOVA followed by Bonferroni test.
Sequential activation of calpain-1 and calpain-2 in retina after acute IOP elevation. The following IOP elevation studies were performed using a model of acute angle closure glaucoma consisting of increasing intraocular pressure (IOP) to 110 mm Hg for 60 min by inserting a needle connected to an elevated reservoir of saline into the anterior chamber. This model reproduced several features of acute angle closure, including, ischemia of retina and iris as noted by absence of red reflex and pupillary response to light. Anterior chamber synechae, resulting in a narrow angle and adhesions between the iris and the cornea, increased cells and flare in the anterior chamber and increased corneal thickness due to corneal edema. Some of these changes persisted over 3 days of observation. Eyes were collected at 0, 2, 4 and 6 h after IOP elevation and retinal frozen sections were prepared and processed for immunohistochemistry with SBDP antibody. In WT mice, SBDP was clearly present in IPL at 2, 4 and 6 h after IOP elevation. However in calpain-1 KO mice, SBDP was only evident in the IPL at 4 and 6 h but not at 2 h (FIG. 10A and C). […]

[1] = 0.3 mg/kg i.p. 30 min before and 2 h after IOP elevation (pre and post inj), 3 days, n=3
[2] = i.p. 2 and 4 h after IOP elevation (two post inj), n=6
[3] = i.p. 2 h after IOP elevation (one post inj), n=10

CCC(NC(=O)C(CC(C)C)NC(=O)OCc1ccccc1)C(=O)C(=O)NCc1cc(OC)cc(OC)c1 (racemic) [Formula 1, Z-Leu-Abu-CONH—CH2-C6H3 (3, 5-(OMe)2)]
cell counts in GCL, IOP-elevated eye [1]: 105.8±4.5 cells/mm | cell counts in GCL, sham eye [1]: 125.1±10.5 cells/mm | SBDP signal in IPL at 4 and 6 h (0.3 mg/kg i.p. 2 h after IOP elevation, WT mice): significantly reduced | cell survival rate (cell count in IOP-elevated eye to sham eye) versus vehicle (all three C2l injected groups): significantly increased | cell counts in GCL, IOP-elevated eye [2]: 96.1±6.3 cells/mm | cell counts in GCL, sham eye [2]: 118.6±3.7 cells/mm | cell counts in GCL, IOP-elevated eye [3]: 86.4±7.0 cells/mm | cell counts in GCL, sham eye [3]: 110.6±3.6 cells/mm | PTEN degradation at 4 and 6 h (injected 2 h after IOP elevation, WT mice): completely blocked
